According to patent US9433687B2, “Anti-Notch3 antibodies and antibody-drug conjugates” (Pfizer Inc., priority 2012, dated 2016):

How the values were obtained:
[1] = OVCAR3 ovarian xenograft model; conditions: female, SCID Hairless Outbred (SHO), mouse, in vivo, ip
[2] = test system: OVCAR3 ovarian xenografts; test: OVCAR3 ovarian xenograft model; conditions: dose 60 mg/kg (30 mg/kg twice a day) intraperitoneally Q7d×4
MDA-MB-468/hNotch3 = target: T1, MDA-MB-468/hNotch3 (Homo sapiens, UniProt Q9UM47); test: In vitro cytotoxicity (MTS), MDA-MB-468/hNotch3; format: cell-based; conditions: Table 13; four days; LP = lacked potency
T1 construct: cell lines engineered to over-express full length human Notch3 protein: MDA-MB-468/hNotch3 and U2OS/hNotch3; expressed in transfected cells; host or cells: MDA-MB-468
T1 sequence (Q9UM47 40-2321): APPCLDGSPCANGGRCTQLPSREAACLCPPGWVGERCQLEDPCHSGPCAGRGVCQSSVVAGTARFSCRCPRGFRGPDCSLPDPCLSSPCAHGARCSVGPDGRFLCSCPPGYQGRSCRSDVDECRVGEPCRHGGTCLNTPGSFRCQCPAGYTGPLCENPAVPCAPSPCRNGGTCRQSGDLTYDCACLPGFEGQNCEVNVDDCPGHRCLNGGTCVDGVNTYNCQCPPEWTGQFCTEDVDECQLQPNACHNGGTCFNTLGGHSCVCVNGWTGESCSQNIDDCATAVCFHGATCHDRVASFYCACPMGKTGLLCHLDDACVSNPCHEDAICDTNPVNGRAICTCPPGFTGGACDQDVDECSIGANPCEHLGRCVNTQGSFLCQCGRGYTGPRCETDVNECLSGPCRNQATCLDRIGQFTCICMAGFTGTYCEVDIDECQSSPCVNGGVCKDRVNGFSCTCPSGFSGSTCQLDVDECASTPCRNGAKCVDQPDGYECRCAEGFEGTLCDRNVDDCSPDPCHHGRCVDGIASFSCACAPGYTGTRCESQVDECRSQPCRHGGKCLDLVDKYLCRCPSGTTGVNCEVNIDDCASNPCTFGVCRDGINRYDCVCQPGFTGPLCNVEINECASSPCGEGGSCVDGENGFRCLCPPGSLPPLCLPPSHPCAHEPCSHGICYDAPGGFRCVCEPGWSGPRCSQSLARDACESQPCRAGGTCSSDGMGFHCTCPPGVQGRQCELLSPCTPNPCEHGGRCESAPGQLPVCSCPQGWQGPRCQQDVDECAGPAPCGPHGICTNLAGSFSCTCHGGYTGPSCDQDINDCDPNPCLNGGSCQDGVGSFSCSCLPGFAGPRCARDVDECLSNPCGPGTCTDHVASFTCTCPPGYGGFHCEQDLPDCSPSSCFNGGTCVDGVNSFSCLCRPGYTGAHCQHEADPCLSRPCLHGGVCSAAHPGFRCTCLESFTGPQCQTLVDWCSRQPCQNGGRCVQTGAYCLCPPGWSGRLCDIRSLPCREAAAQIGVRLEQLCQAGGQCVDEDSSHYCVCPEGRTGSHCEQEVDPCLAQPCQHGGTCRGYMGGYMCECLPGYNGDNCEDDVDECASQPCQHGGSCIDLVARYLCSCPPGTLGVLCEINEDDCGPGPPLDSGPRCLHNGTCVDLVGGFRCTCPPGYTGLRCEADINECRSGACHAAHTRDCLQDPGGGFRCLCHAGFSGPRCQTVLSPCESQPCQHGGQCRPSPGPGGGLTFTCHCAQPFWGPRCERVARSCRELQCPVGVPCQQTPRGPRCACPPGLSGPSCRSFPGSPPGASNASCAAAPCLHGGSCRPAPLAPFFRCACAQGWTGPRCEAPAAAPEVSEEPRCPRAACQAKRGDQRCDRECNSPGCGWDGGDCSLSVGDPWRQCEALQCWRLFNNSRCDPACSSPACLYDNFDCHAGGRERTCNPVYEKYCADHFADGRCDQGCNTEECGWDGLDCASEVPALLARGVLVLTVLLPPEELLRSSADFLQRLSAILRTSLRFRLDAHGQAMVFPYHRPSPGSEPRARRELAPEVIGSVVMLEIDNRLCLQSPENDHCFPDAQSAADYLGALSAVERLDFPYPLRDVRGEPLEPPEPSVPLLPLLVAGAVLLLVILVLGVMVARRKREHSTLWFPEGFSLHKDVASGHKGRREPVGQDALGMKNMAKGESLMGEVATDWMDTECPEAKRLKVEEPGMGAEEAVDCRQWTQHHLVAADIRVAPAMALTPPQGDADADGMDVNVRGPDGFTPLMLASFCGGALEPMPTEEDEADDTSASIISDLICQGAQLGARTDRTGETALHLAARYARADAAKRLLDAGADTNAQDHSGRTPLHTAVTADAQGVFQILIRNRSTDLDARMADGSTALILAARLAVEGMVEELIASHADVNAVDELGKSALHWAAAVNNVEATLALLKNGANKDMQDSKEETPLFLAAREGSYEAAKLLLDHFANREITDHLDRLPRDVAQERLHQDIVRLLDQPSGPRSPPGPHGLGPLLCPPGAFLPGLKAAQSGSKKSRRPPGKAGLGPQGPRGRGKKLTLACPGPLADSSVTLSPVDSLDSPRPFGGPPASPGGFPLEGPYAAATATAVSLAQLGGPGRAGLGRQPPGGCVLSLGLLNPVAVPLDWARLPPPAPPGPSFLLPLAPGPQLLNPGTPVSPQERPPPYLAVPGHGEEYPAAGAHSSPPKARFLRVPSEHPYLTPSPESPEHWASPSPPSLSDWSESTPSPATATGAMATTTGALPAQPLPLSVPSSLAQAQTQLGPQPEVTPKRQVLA
Description: (§1) The effects of anti-Notch3 ADCs were assessed on 1) cell lines endogenously expressing Notch3 protein: HCC2429 (lung cancer), OVCAR3 (ovarian cancer) and MDA-MB-468 (breast cancer), 2) cell lines engineered to over-express full length human Notch3 protein: MDA-MB-468/hNotch3 and U2OS/hNotch3, and 3) a negative control cell line (SW900) using an MTS cellular viability indicator (Promega, Madison, Wis.). These cell lines were cultured with increasing concentrations of anti-Notch3 ADCs comprising rat-human chimeric anti-Notch3 antibodies, ch28 and ch75, and humanized anti-Notch3 antibodies, hu28 and hu75, conjugated to various linker-payload combinations of the present invention. As a specificity control for the anti-Notch3-ADCs, non-targeted control-ADCs (huNeg8.8-ADCs or ch2H6-ADCs) were also tested on the same cell lines. After four days, viability of each culture was assessed. IC50 values were calculated by logistic non-linear regression, model #203 with XL fit v4.2 (IDBS, Guildford, Surry, UK) and presented as ng Ab/mL. The drug antibody ratio (DAR) is also provided.

U2OS/hNotch3 = U2OS/hNotch3 (Homo sapiens, UniProt Q9UM47); test: In vitro cytotoxicity (MTS), U2OS/hNotch3; format: cell-based; design: U-2 OS cells stably over-expressing human full length Notch3 protein on cell surface; expressed in transfected cells; host or cells: U-2 OS (human osteosarcoma); conditions: Table 13; four days; LP = lacked potency
Sequence of U2OS/hNotch3 (Q9UM47 40-2321): as above
Description: as §1

[3] = test system: MDA-MB-468 (breast cancer); test: In vitro cytotoxicity (MTS), MDA-MB-468; format: cell-based, human; conditions: Table 13; four days; LP = lacked potency
Description: as §1

OVCAR3 (ovarian cancer) = test: In vitro cytotoxicity (MTS), OVCAR3; format: cell-based, human; conditions: Table 13; four days; LP = lacked potency
Description: as §1
(§2) This process generated the anti-Notch3 cysteine mutant ADCs: hu28-(L443C)-vc0101 and hu28-(L443C/κK183C)-vc0101. The activity of the anti-Notch3 cysteine mutant ADCs were assessed on cell lines endogenously expressing Notch3 protein: HCC2429 (lung cancer) and OVCAR3 (ovarian cancer) using an MTS cellular viability indicator as described in previous Examples.

HCC2429 (lung cancer) = test: In vitro cytotoxicity (MTS), HCC2429; format: cell-based, human; conditions: Table 13; four days; LP = lacked potency
Description: as §1, §2

N87 gastric xenografts = test: N87 gastric xenograft model; format: in vivo, mouse; conditions: 5 mg/kg iv Q4dx4; FIG. 16D, 16E
Description: Similar in vivo experiments were performed with the N87 gastric cancer cell line as described above. To generate xenografts, nude (Nu/Nu) female mice were implanted subcutaneously with 8×10^6 N87 cells in 50% Matrigel (BD Biosciences).
The N87 gastric model was also dosed intravenously Q4d×4 with PBS vehicle, rat-human chimeric anti-Notch3 ADCs and control huNeg-8.8 ADCs, at a dose of 5 mg/kg as provided in FIG. 16D.
The N87 gastric model was also dosed intravenously Q4d×4 with PBS vehicle and rat-human chimeric anti-Notch3 ADCs ch28-mc0131, ch75-mc0131, ch28-m(H2O)c-0131 and ch75-m(H2O)c-0131 at a dose of 5 mg/kg as provided in FIG. 16E.

## CC(=O)O[C@H]1C(=O)[C@@]2(C)[C@H]([C@H](OC(=O)c3ccccc3)[C@]3(O)C[C@H](OC(=O)[C@H](O)[C@@H](NC(=O)c4ccccc4)c4ccccc4)C(C)=C1C3(C)C)[C@]1(OC(C)=O)CO[C@@H]1C[C@@H]2O [paclitaxel, reference compound]
[1]
  MTD: 60 mg/kg
[2]; DAY 0
  tumor volume: 169 mm3
[2]; DAY 6
  tumor volume: 139 mm3
[2]; DAY 11
  tumor volume: 85 mm3
[2]; DAY 14
  tumor volume: 84 mm3
[2]; DAY 18
  tumor volume: 61 mm3
[2]; DAY 21
  tumor volume: 50 mm3
[2]; DAY 25
  tumor volume: 41 mm3
[2]; DAY 28
  tumor volume: 44 mm3
[2]; DAY 31
  tumor volume: 43 mm3
[2]; DAY 34
  tumor volume: 50 mm3
[2]; DAY 38
  tumor volume: 55 mm3
[2]; DAY 41
  tumor volume: 38 mm3
[2]; DAY 45
  tumor volume: 39 mm3
[2]; DAY 49
  tumor volume: 40 mm3
[2]; DAY 53
  tumor volume: 40 mm3
[2]; DAY 56
  tumor volume: 39 mm3
[2]; DAY 59
  tumor volume: 37 mm3
[2]; DAY 63
  tumor volume: 42 mm3
[2]; DAY 67
  tumor volume: 33 mm3
[2]; DAY 70
  tumor volume: 28 mm3
[2]; DAY 74
  tumor volume: 32 mm3
[2]; DAY 77
  tumor volume: 31 mm3
[2]; DAY 80
  tumor volume: 31 mm3
[2]; DAY 83
  tumor volume: 38 mm3
[2]; DAY 87
  tumor volume: 28 mm3
[2]; DAY 90
  tumor volume: 32 mm3
[2]; DAY 94
  tumor volume: 30 mm3
[2]; DAY 97
  tumor volume: 31 mm3
[2]; DAY 102
  tumor volume: 26 mm3
[2]; DAY 105
  tumor volume: 31 mm3
[2]; DAY 108
  tumor volume: 28 mm3
[2]; DAY 111
  tumor volume: 26 mm3
[2]; DAY 115
  tumor volume: 31 mm3
[2]; DAY 118
  tumor volume: 26 mm3
[2]; DAY 122
  tumor volume: 31 mm3

B1: ch28-vc0101: ch28 conjugated to vc0101 linker-payload (conjugate)
VH: EVQLVESGGGLVQPGRSLTLSCVASGFTFRDYGMTWIRQAPGKGLTWVAYISSGSNYIYYAEAVKGRFTISRDNAKNTLYLQMTSLRSEDTALYFCTRRGPFVLDAWGQGASVTVSS
VL: DIQMTQSPSFLSASVGDRVTINCKASQSINRYLHWFQQKLGEAPKLLIYNANGLQTGIPSRFSGSGSGTDFTLTISSLQSEDVATYFCLQHNTWPDTFGAGTKLELK
MDA-MB-468/hNotch3
  IC50 (ng Ab/mL) ± S.E.M., MDA-MB-468/hNotch3: 4 ± 0.5 ng Ab/mL
U2OS/hNotch3
  IC50 (ng Ab/mL) ± S.E.M., U2OS/hNotch3: 95 ± 18.2 ng Ab/mL
[3]
  IC50 (ng Ab/mL) ± S.E.M., MDA-MB-468: 5443 ± 2630.9 ng Ab/mL
OVCAR3 (ovarian cancer)
  IC50 (ng Ab/mL) ± S.E.M., OVCAR3: 635 ng Ab/mL
HCC2429 (lung cancer)
  IC50 (ng Ab/mL) ± S.E.M., HCC2429: 3230 ± 1116.5 ng Ab/mL

B2: ch75-mc0131 (conjugate)
VH: QVKLLQSGAALVKPGASVKMSCKASGYAFTDYWVTWVKQSHGKSLEWIGEISPNSGGTNFNEKFKGKATLTVDKSTSTAYMELSRLTSEDSAIYYCTRGEIRYNWFAYWGQGTLVTVSS
VL: DIQMTQSPSSLSASVGDRVTITCKASQNVGNNIAWYQQKPGKAPKLLIYYASNRYTGVPSRFSGSGYGTDFTLTISSLQPEDFATYYCQRLYNSPFTFGGGTKVEIK
U2OS/hNotch3
  IC50 (ng Ab/mL) ± S.E.M., U2OS/hNotch3: 19 ng Ab/mL
[3]
  IC50 (ng Ab/mL) ± S.E.M., MDA-MB-468: 8202 ± 2773.0 ng Ab/mL
N87 gastric xenografts
  growth of N87 gastric xenografts: inhibited growth of N87 gastric xenografts
OVCAR3 (ovarian cancer)
  IC50 (ng Ab/mL) ± S.E.M., OVCAR3: 289 ng Ab/mL
HCC2429 (lung cancer)
  IC50 (ng Ab/mL) ± S.E.M., HCC2429: 671 ± 406.5 ng Ab/mL
